Nine compounds from PubChem BioAssay (NCI) can be followed below.

Test systems include ACHN renal; BT-549 breast; CCRF-CEM leukemia; HOP-92 NSCLC; OVCAR-3 ovarian; PC-3 prostate; RXF 393 renal; SF-539 CNS; TK-10 renal; UACC-257 melanoma.
Common to all, as to assay: inhibition of tumour cell growth, NCI panel, 48 h

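Following 48 hours of exposure in 96-well plates, responses at five concentrations were used to interpolate endpoints linearly. Here, GI50 denotes the concentration required for 50% inhibition of growth. TGI: total growth inhibition.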 Bounds are passed on as bounds.

On to `Cc1cc2cc3ccc(N(C)C)cc3nc2cc1N`, for which the GI50 in the experiment on ACHN renal was 0.423 µM; with BT-549 breast it was 1.64 µM; in the experiment on CCRF-CEM leukemia, 0.772 µM; in the experiment on HOP-92 NSCLC it was 1.14 µM; in the experiment with OVCAR-3 ovarian it was 0.502 µM; in the experiment on PC-3 prostate it was 0.992 µM. Also, the GI50 with RXF 393 renal is 0.41 µM; with SF-539 CNS, 0.658 µM; in the experiment on TK-10 renal, 1.41 µM; in the experiment on UACC-257 melanoma it was 1.12 µM. In addition, the TGI was 5.75 µM in the experiment with ACHN renal; 3.82 µM in the experiment on BT-549 breast; 10.7 µM in the experiment on CCRF-CEM leukemia; 4.69 µM in the experiment on HOP-92 NSCLC; 2.45 µM with OVCAR-3 ovarian; 4.91 µM with PC-3 prostate. For the same compound, the TGI with RXF 393 renal came to 1.34 µM; in the experiment on SF-539 CNS, 2.49 µM; in the experiment on TK-10 renal it was 9.44 µM; in the experiment with UACC-257 melanoma, 3.04 µM.
For `COc1cccc2c1-c1c(c3ccc([N+](=O)[O-])cc3c(=O)n1CCCN)C2=O`, the GI50 in the experiment on ACHN renal is 0.884 µM; in the experiment on BT-549 breast, 1.72 µM; with CCRF-CEM leukemia, 0.183 µM; with HOP-92 NSCLC it was 5.64 µM; with OVCAR-3 ovarian, 2.3 µM; with PC-3 prostate, 1.43 µM. In addition, the GI50 with RXF 393 renal is 24.1 µM; with SF-539 CNS, 1.52 µM; in the experiment on TK-10 renal it was 2.81 µM; in the experiment with UACC-257 melanoma, 17.9 µM. The TGI in the experiment on ACHN renal came out at 6.65 µM; in the experiment with BT-549 breast, 3.61 µM; in the experiment with CCRF-CEM leukemia, 4.76 µM; with HOP-92 NSCLC, 13.3 µM; with OVCAR-3 ovarian it was 5.71 µM; in the experiment on PC-3 prostate, 4.03 µM. Moreover, the TGI in the experiment on RXF 393 renal was more than 78.8 µM; with SF-539 CNS, 3.19 µM; with TK-10 renal, 13.2 µM; with UACC-257 melanoma it was 44.4 µM.
With `O=C1C2=C(c3ccccc31)C(c1ccccc1)N1C(=O)CSC1=N2` (stereo not given), the TGI in the experiment on ACHN renal was more than 100 µM; in the experiment on BT-549 breast, 66.5 µM; with CCRF-CEM leukemia it was more than 100 µM; in the experiment on HOP-92 NSCLC it was more than 100 µM; in the experiment on OVCAR-3 ovarian, more than 100 µM; in the experiment on PC-3 prostate it was more than 100 µM. Further, the TGI was 60.5 µM with RXF 393 renal, 97.1 µM with SF-539 CNS, more than 100 µM in the experiment with TK-10 renal and more than 100 µM in the experiment with UACC-257 melanoma.
With `COc1ccc2c(c1)CC[C@@H]1[C@@H]2CC[C@]2(C)[C@@H](NC(=O)/C=C/c3ccc(O)c(O)c3)CC[C@@H]12`, the GI50 with ACHN renal is 3.89 µM; in the experiment on BT-549 breast, 5.56 µM; in the experiment on CCRF-CEM leukemia, 0.731 µM; in the experiment with HOP-92 NSCLC, 2.49 µM; in the experiment with OVCAR-3 ovarian, 10.6 µM; with PC-3 prostate, 2.17 µM. In addition, the GI50 was 7.94 µM with RXF 393 renal, 4.1 µM with SF-539 CNS, 1.47 µM in the experiment on TK-10 renal and 13.4 µM in the experiment with UACC-257 melanoma. The TGI was determined as 14.8 µM in the experiment with ACHN renal; 20.3 µM in the experiment on BT-549 breast; 6.67 µM with CCRF-CEM leukemia; 11.6 µM in the experiment with HOP-92 NSCLC; 22.7 µM in the experiment on OVCAR-3 ovarian; 12.5 µM with PC-3 prostate. The TGI in the experiment on RXF 393 renal is 46 µM; with SF-539 CNS, 15.6 µM; in the experiment on TK-10 renal, 6.6 µM; in the experiment on UACC-257 melanoma, 31.8 µM.
On to `S=C(Nc1ccc(N=Nc2ccccc2)cc1)SCc1ccccc1`, for which the TGI came to 31.3 µM in the experiment with ACHN renal; 40.3 µM in the experiment on BT-549 breast; 36.1 µM in the experiment on CCRF-CEM leukemia; 30.4 µM with HOP-92 NSCLC; 29.4 µM with OVCAR-3 ovarian; 30.6 µM in the experiment on PC-3 prostate. The TGI amounted to 46.4 µM with RXF 393 renal, 34.5 µM with SF-539 CNS, 25.5 µM with TK-10 renal and 33.3 µM in the experiment with UACC-257 melanoma.
`CCCCCCNC(=O)Oc1ccc(/C(=C(/C)Cc2ccc(OC)cc2)c2ccc(OCCCN(C)C)cc2)cc1`: the GI50 is 16.4 µM in the experiment on ACHN renal; 15.6 µM in the experiment on BT-549 breast; 16.3 µM in the experiment on CCRF-CEM leukemia; 9.99 µM with HOP-92 NSCLC; 15.2 µM with OVCAR-3 ovarian; 14.6 µM in the experiment with PC-3 prostate. Also, the GI50 is 14.8 µM with RXF 393 renal, 16.2 µM with SF-539 CNS, 17.2 µM in the experiment on TK-10 renal and 19.3 µM in the experiment on UACC-257 melanoma. The TGI in the experiment with ACHN renal came to 30.4 µM; in the experiment on BT-549 breast, 30.3 µM; with CCRF-CEM leukemia, 33.8 µM; in the experiment on HOP-92 NSCLC, 22.4 µM; with OVCAR-3 ovarian, 29.3 µM; with PC-3 prostate it was 28.2 µM. The TGI in the experiment on RXF 393 renal came out at 29.7 µM; in the experiment on SF-539 CNS it was 30.3 µM; in the experiment on TK-10 renal, 31.6 µM; in the experiment on UACC-257 melanoma, 35.3 µM.
With `CCOc1cc(Br)c(C(C)NC(=O)c2cccc(OC)c2)cc1OCC` (stereo not given), the GI50 in the experiment with ACHN renal was 21.1 µM; in the experiment on BT-549 breast, 13.2 µM; with CCRF-CEM leukemia, 13.6 µM; with HOP-92 NSCLC, 8.97 µM; in the experiment with OVCAR-3 ovarian it was 5.42 µM; in the experiment with PC-3 prostate, 12.6 µM. Further, the GI50 was 12.6 µM in the experiment with RXF 393 renal, 7.2 µM in the experiment with SF-539 CNS, 28.2 µM with TK-10 renal and 22.5 µM in the experiment with UACC-257 melanoma. The TGI in the experiment on ACHN renal is more than 100 µM; in the experiment on BT-549 breast it was more than 84.1 µM; in the experiment with CCRF-CEM leukemia, more than 100 µM; with HOP-92 NSCLC it was more than 83.5 µM; in the experiment with OVCAR-3 ovarian, 38.7 µM; with PC-3 prostate it was more than 100 µM. Besides, the TGI was more than 100 µM in the experiment with RXF 393 renal, 42.8 µM in the experiment on SF-539 CNS, more than 100 µM in the experiment on TK-10 renal and more than 100 µM in the experiment with UACC-257 melanoma.
Consider `O=C(CN1CCN(c2cc3c(cc2F)c(=O)c(C(=O)O)cn3C2CC2)CC1)Nc1nc(-c2ccc(Cl)cc2)cs1`, for which the GI50 is 3.05 µM in the experiment on ACHN renal; 3.85 µM in the experiment with BT-549 breast; 4.39 µM in the experiment on CCRF-CEM leukemia; 2.73 µM with HOP-92 NSCLC; 3.51 µM in the experiment on OVCAR-3 ovarian; 3.36 µM with PC-3 prostate. Besides, the GI50 was 4.72 µM with RXF 393 renal, 3.93 µM in the experiment with SF-539 CNS, 4.28 µM with TK-10 renal and 3.94 µM in the experiment with UACC-257 melanoma. The TGI with ACHN renal was more than 100 µM; in the experiment with BT-549 breast, 60.3 µM; in the experiment on CCRF-CEM leukemia it was more than 100 µM; in the experiment on HOP-92 NSCLC, 7.91 µM; in the experiment on OVCAR-3 ovarian, 17.3 µM; with PC-3 prostate, 29.9 µM. Also, the TGI was more than 100 µM in the experiment on RXF 393 renal, more than 100 µM in the experiment on SF-539 CNS, more than 100 µM in the experiment with TK-10 renal and 22.2 µM in the experiment on UACC-257 melanoma.
As to `Cc1cc(Nc2nc(-c3cccnc3)nc3ccccc23)n[nH]1`, the GI50 with ACHN renal was 0.527 µM; in the experiment with BT-549 breast it was 4.24 µM; in the experiment on CCRF-CEM leukemia, 4.83 µM; with HOP-92 NSCLC, 1.62 µM; in the experiment on OVCAR-3 ovarian, 3.74 µM; in the experiment with PC-3 prostate it was 1.85 µM. Further, the GI50 in the experiment on RXF 393 renal is 0.388 µM; with SF-539 CNS, 1.82 µM; in the experiment with TK-10 renal it was 0.607 µM; in the experiment on UACC-257 melanoma it was 42.2 µM. Further, the TGI in the experiment on ACHN renal is more than 100 µM; in the experiment with BT-549 breast, more than 100 µM; in the experiment with CCRF-CEM leukemia, more than 100 µM; with HOP-92 NSCLC, 6.63 µM; with OVCAR-3 ovarian, more than 100 µM; with PC-3 prostate, more than 100 µM. Further, the TGI with RXF 393 renal is 2.52 µM; in the experiment on SF-539 CNS, 7.99 µM; in the experiment with TK-10 renal it was 99.1 µM; in the experiment on UACC-257 melanoma it was more than 100 µM.
